This note sets out measurements from patent publication US9242984B2, “Pyrazolyl derivatives as Syk inhibitors” (Merck Sharp & Dohme Corp., priority 2012, dated 2016).

In the first assay the target is T1, recombinant human Syk (GST-hSyk fusion protein) (Homo sapiens, UniProt P43405).
T1 construct: purchased Carna Biosciences 08-176
The assay can be described thus: Homogeneous Time-Resolved Fluorescence (HTRF) assay for the recombinant human Syk enzyme. Type of assay: biochemical. Particulars: 10-dose titration, 25 μM ATP; read-out: rhSYK IC50. Put shortly:
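GST-hSyk (5 pM) preincubated 10 min with compound (0.1% DMSO) in 15 mM Tris-HCl pH 7.5, 2 mM DTT; reaction started with 250 nM biotinylated peptide, 5 mM Mg, 25 μM ATP, 45 min, room temperature. EDTA quench, Eu-anti-phosphotyrosine/SA-APC HTRF read after 30 min; IC50 from 10-dose titration (10 μM–0.508 nM), four-parameter fit.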
Background: In TR-FRET formats the signal depends on donor and acceptor labels being close together.
As for `Cc1cc(Nc2nccc(C(F)(F)F)n2)cc(-c2cnn(CC3(O)CCNCC3)c2)c1` [Example 12.1, 4-((4-(3-methyl-5-((4-(trifluoromethyl)pyrimidin-2-yl)amino)phenyl)-1H-pyrazol-1-yl)methyl)piperidin-4-ol], the IC50 worked out at 110 nM. On the same count and under the same terms, the same measure for `Cc1cc(Nc2nccc(C(F)(F)F)n2)cc(-c2cnn(C(C)C)c2)c1` [Example 13.1, N-(3-(1-isopropyl-1H-pyrazol-4-yl)-5-methylphenyl)-4-(trifluoromethyl)-pyrimidin-2-amine]: 10.7 nM. The same measure, in the same setting: the same measure for `Cc1cc(Nc2nccc(C(F)(F)F)n2)cc(-c2cnn([C@H]3CC[C@@H](O)CC3)c2)c1` [Example 15, cis-4-[4-(3-methyl-5-{[4-(trifluoromethyl)pyrimidin-2-yl]amino}phenyl)-1H-pyrazol-1-yl]cyclohexanol]: 5.9 nM; for `Cc1cc(Nc2nccc(C(F)F)n2)cc(-c2cnn(C[C@H](O)C(N)=O)c2)c1` [Example 16, (2S)-3-[4-(3-{[4-(difluoromethyl)pyrimidin-2-yl]amino}-5-methylphenyl)-1H-pyrazol-1-yl]-2-hydroxypropanamide]: 2.7 nM; for `Cc1cc(Nc2nccc(C(F)(F)F)n2)cc(-c2cnn(CC3(O)CCN(C(N)=O)CC3)c2)c1` [Example 17, 4-hydroxy-4-((4-(3-methyl-5-((4-(trifluoromethyl)pyrimidin-2-yl)amino)phenyl)-1H-pyrazol-1-yl)methyl)piperidine-1-carboxamide]: 13.9 nM. Still for that read-out and setting: the same measure for `Cc1cc(Nc2nccc(C(F)(F)F)n2)cc(-n2cc(CCC(=O)O)cn2)c1` [Example 19.1, 3-(1-(3-methyl-5-((4-(trifluoromethyl)pyrimidin-2-yl)amino)phenyl)-1H-pyrazol-4-yl)propanoic acid]: 61 nM.

The assay is the same for the next values; noted with them: IC50 class; 10-dose titration, 25 μM ATP; read-out: rhSYK Activity.
Take `Cc1cc(Nc2nccc(C(C)C)n2)cc(-c2cnn(C[C@@H](O)C(=O)O)c2)c1` [Example 11.16, (2R)-2-hydroxy-3-[4-(3-methyl-5-{[4-(1-methylethyl)-pyrimidin-2-yl]amino}phenyl)-1H-pyrazol-1-yl]propanoic acid]: the IC50 was at most 100 nM. `Cc1cc(Nc2nccc(C(F)(F)F)n2)cc(-c2cnn(C[C@H](O)C(=O)O)c2)n1` [Example 11.18, (2S)-2-hydroxy-3-[4-(6-methyl-4-{[4-(trifluoro-methyl)pyrimidin-2-yl]amino}pyridin-2-yl)-1H-pyrazol-1-yl]propanoic acid]: the IC50 is at most 100 nM.

Take `Cc1ccnc(Nc2cc(C)nc(-c3cnn(C[C@@H](O)C(=O)O)c3)n2)c1` [Example 11.19, (2R)-2-hydroxy-3-(4-{4-methyl-6-[(4-methyl-pyridin-2-yl)amino]-pyrimidin-2-yl}-1H-pyrazol-1-yl)propanoic acid]: the IC50 fell in the range of 100 to 1000 nM. Same read-out and setting: in the case of `Cc1cc(Nc2nccc(C(F)(F)F)n2)cc(-c2cnn(C[C@@H](O)C(=O)O)c2)n1` [Example 11.20, (2R)-2-hydroxy-3-[4-(6-methyl-4-{[4-(trifluoro-methyl)pyrimidin-2-yl]amino}pyridin-2-yl)-1H-pyrazol-1-yl]propanoic acid] it was at most 100 nM; in that of `Cc1cc(Nc2nccc(C(F)(F)F)n2)cc(-c2cnn(CC3(O)CCNCC3)c2)c1` [Example 12.1, 4-((4-(3-methyl-5-((4-(trifluoromethyl)pyrimidin-2-yl)amino)phenyl)-1H-pyrazol-1-yl)methyl)piperidin-4-ol], 100 to 1000 nM.

Consider `Cc1cc(Nc2nccc(C(F)(F)F)n2)cc(-c2cnn(CC3(O)CCC3)c2)c1` [Example 12.2, 1-{[4-(3-methyl-5-{[4-(trifluoro-methyl)pyrimidin-2-yl]amino}-phenyl)-1H-pyrazol-1-yl]-methyl}-cyclobutanol], for which the IC50 is at most 100 nM. On the same count and under the same terms, the same measure for `COC1CC(O)(Cn2cc(-c3cc(C)cc(Nc4nccc(C)n4)c3)cn2)C1` (stereo not drawn) [Example 12.3, 3-methoxy-1-[(4-{3-methyl-5-[(4-methylpyrimidin-2-yl)amino]phenyl}-1H-pyrazol-1-yl)methyl]-cyclobutanol]: at most 100 nM; for `Cc1cc(Nc2nccc(C(F)(F)F)n2)cc(-c2cnn(CC3(O)CCN(CC(=O)OC(C)(C)C)CC3)c2)c1` [Example 12.4, tert-butyl (4-hydroxy-4-{[4-(3-methyl-5-{[4-(trifluoro-methyl)pyrimidin-2-yl]amino}phenyl)-1H-pyrazol-1-yl]methyl}-piperidin-1-yl)acetate]: 100 to 1000 nM.

In the case of `Cc1cc(Nc2nccc(C(F)(F)F)n2)cc(-c2cnn(CC3(O)CCOCC3)c2)c1` [Example 12.5, 4-{[4-(3-methyl-5-{[4-(trifluoromethyl)pyrimidin-2-yl]amino}phenyl)-1H-pyrazol-1-yl]methyl}-tetrahydro-2H-pyran-4-ol], the IC50 is at most 100 nM. In the case of `Cc1cc(Nc2nccc(C(F)(F)F)n2)cc(-c2cnn(CC3(O)CCC(C(=O)O)C(C)(C)C3)c2)c1` (stereo not drawn) [Example 12.6, 4-hydroxy-2,2-dimethyl-4-{[4-(3-methyl-5-{[4-(trifluoromethyl)pyrimidin-2-yl]amino}phenyl)-1H-pyrazol-1-yl]methyl}-cyclohexanecarboxylic acid], the IC50 is at most 100 nM.

Turning to `Cc1cc(Nc2nccc(C(F)(F)F)n2)cc(-c2cnn(CC3(O)CCCOC3)c2)c1` (stereo not drawn) [Example 12.7, 3-{[4-(3-methyl-5-{[4-(trifluoromethyl)pyrimidin-2-yl]amino}phenyl)-1H-pyrazol-1-yl]methyl}-tetrahydro-2H-pyran-3-ol], the IC50 was at most 100 nM. In the case of `Cc1cc(Nc2nccc(C(F)(F)F)n2)cc(-c2cnn(C[C@@]3(O)C[C@@H](C)O[C@@H](C)C3)c2)c1` [Example 12.8, meso (2R,4S,6S)-2,6-dimethyl-4-{[4-(3-methyl-5-{[4-(trifluoro-methyl)pyrimidin-2-yl]amino}phenyl)-1H-pyrazol-1-yl]methyl}-tetrahydro-2H-pyran-4-ol], the IC50 was at most 100 nM. The same measure, in the same setting: in the case of `Cc1cc(Nc2nccc(C(F)(F)F)n2)cc(-c2cnn(CC3(O)CCOC(C)(C)C3)c2)c1` (stereo not drawn) [Example 12.9, 2,2-dimethyl-4-{[4-(3-methyl-5-{[4-(trifluoro-methyl)pyrimidin-2-yl]amino}phenyl)-1H-pyrazol-1-yl]methyl}-tetrahydro-2H-pyran-4-ol] it was at most 100 nM; in that of `Cc1cc(Nc2nccc(C(F)(F)F)n2)cc(-c2cnn(CC3(O)CCOC(C)(C)C3)c2)c1` (stereo not drawn) [Example 12.10, 2,2-dimethyl-4-{[4-(3-methyl-5-{[4-(trifluoro-methyl)pyrimidin-2-yl]amino}phenyl)-1H-pyrazol-1-yl]methyl}-tetrahydro-2H-pyran-4-ol], at most 100 nM; in that of `Cc1cc(Nc2nccc(C(F)(F)F)n2)cc(-c2cnn(CC3(O)CCCOC3)c2)c1` (stereo not drawn) [Example 12.11, 3-{[4-(3-methyl-5-{[4-(trifluoromethyl)pyrimidin-2-yl]amino}phenyl)-1H-pyrazol-1-yl]methyl}-tetrahydro-2H-pyran-3-ol], at most 100 nM.

As for `Cc1cc(Nc2nccc(C(F)(F)F)n2)cc(-c2cnn(CC3COCCC3O)c2)c1` (stereo not drawn) [Example 12.12, 3-{[4-(3-methyl-5-{[4-(trifluoromethyl)pyrimi-din-2-yl]amino}phenyl)-1H-pyrazol-1-yl]methyl}-tetrahydro-2H-pyran-4-ol], the IC50 is at most 100 nM. Still for that read-out and setting: in the case of `Cc1cc(Nc2nccc(C)n2)cc(-c2cnn(CC3(O)CCOCC3)c2)c1` [Example 12.13, 4-[(4-{3-methyl-5-[(4-methylpyrimidin-2-yl)amino]phenyl}-1H-pyrazol-1-yl)methyl]-tetrahydro-2H-pyran-4-ol] it was 100 to 1000 nM. On the same count and under the same terms, the same measure for `Cc1cc(Nc2nccc(C(F)(F)F)n2)cc(-c2cnn(C(C)C3(O)CCOCC3)c2)c1` (stereo not drawn) [Example 12.14, 4-{1-[4-(3-methyl-5-{[4-(trifluoromethyl)pyrimidin-2-yl]amino}phenyl)-1H-pyrazol-1-yl]ethyl}-tetrahydro-2H-pyran-4-ol]: at most 100 nM; for `Cc1cc(Nc2nccc(C(F)(F)F)n2)cc(-c2cnn(CC3(O)CCN(CC(=O)O)CC3)c2)c1` [Example 12.15, (4-hydroxy-4-{[4-(3-methyl-5-{[4-(trifluoromethyl)-pyrimidin-2-yl]amino}-phenyl)-1H-pyrazol-1-yl]methyl}piperidin-1-yl)acetic acid]: at most 100 nM. Still for that read-out and setting: in the case of `Cc1cc(Nc2nccc(C(F)(F)F)n2)cc(-c2cnn(C(C)C)c2)c1` [Example 13.1, N-(3-(1-isopropyl-1H-pyrazol-4-yl)-5-methylphenyl)-4-(trifluoromethyl)-pyrimidin-2-amine] it was at most 100 nM. Turning to `Cc1cc(Nc2nccc(C(F)(F)F)n2)cc(-c2cnn(CCC3CCCN3)c2)c1` (stereo not drawn) [Example 13.2, N-{3-methyl-5-[1-(2-pyrrolidin-2-ylethyl)-1H-pyrazol-4-yl]phenyl}-4-(trifluoro-methyl)-pyrimidin-2-amine], the IC50 is at most 100 nM. Same read-out and setting: the same measure for `Cc1cc(Nc2nccc(C(F)(F)F)n2)cc(-c2cnn(CC3CCCO3)c2)c1` (stereo not drawn) [Example 13.3, N-{3-methyl-5-[1-(tetra-hydrofuran-2-ylmethyl)-1H-pyrazol-4-yl]phenyl}-4-(trifluoro-methyl)-pyrimidin-2-amine]: at most 100 nM; for `Cc1cc(Nc2nccc(C(F)(F)F)n2)cc(-c2cnn([C@H]3CC[C@@H](O)CC3)c2)c1` [Example 15, cis-4-[4-(3-methyl-5-{[4-(trifluoromethyl)pyrimidin-2-yl]amino}phenyl)-1H-pyrazol-1-yl]cyclohexanol]: at most 100 nM; for `Cc1cc(Nc2nccc(C(F)F)n2)cc(-c2cnn(C[C@H](O)C(N)=O)c2)c1` [Example 16, (2S)-3-[4-(3-{[4-(difluoromethyl)pyrimidin-2-yl]amino}-5-methylphenyl)-1H-pyrazol-1-yl]-2-hydroxypropanamide]: at most 100 nM. The same measure, in the same setting: the same measure for `Cc1cc(Nc2nccc(C(F)(F)F)n2)cc(-c2cnn(CC3(O)CCN(C(N)=O)CC3)c2)c1` [Example 17, 4-hydroxy-4-((4-(3-methyl-5-((4-(trifluoromethyl)pyrimidin-2-yl)amino)phenyl)-1H-pyrazol-1-yl)methyl)piperidine-1-carboxamide]: at most 100 nM; for `O=C(O)CCc1cnn(-c2cccc(Nc3cc(C(F)(F)F)ccn3)n2)c1` [Example 18.1, 3-(1-(6-((4-(trifluoromethyl)pyridin-2-yl)amino)pyridin-2-yl)-1H-pyrazol-4-yl)propanoic acid]: at most 100 nM. The same measure, in the same setting: the same measure for `Cc1ccnc(Nc2cccc(-n3cc(CCC(=O)O)cn3)n2)c1` [Example 18.2, 3-(1-{6-[(4-methylpyridin-2-yl)amino]pyridin-2-yl}-1H-pyrazol-4-yl)propanoic acid]: 100 to 1000 nM; for `Cc1cc(Nc2cc(C3CC3)ccn2)nc(-n2cc(CCC(=O)O)cn2)c1` [Example 18.3, 3-(1-{6-[(4-cyclopropylpyridin-2-yl)amino]-4-methylpyridin-2-yl}-1H-pyrazol-4-yl)propanoic acid]: at most 100 nM. As for `Cc1cc(Nc2cc(C)c(Cl)cn2)nc(-n2cc(CCC(=O)O)cn2)c1` [Example 18.4, 3-(1-{6-[(5-chloro-4-methylpyridin-2-yl)amino]-4-methylpyridin-2-yl}-1H-pyrazol-4-yl)propanoic acid], the IC50 lay in the range of 100 to 1000 nM. On the same count and under the same terms, in the case of `Cc1cc(Nc2nccc(C(F)(F)F)n2)cc(-n2cc(CCC(=O)O)cn2)c1` [Example 19.1, 3-(1-(3-methyl-5-((4-(trifluoromethyl)pyrimidin-2-yl)amino)phenyl)-1H-pyrazol-4-yl)propanoic acid] it was at most 100 nM.
